Data from US6632794B1, “Insulin-like growth factor agonist molecules” (Genentech, Inc., priority 1997, dated 2003).
Where “and” joins values, the source holds several entries; their conditions need not be identical. Identical values can stand only once. Positions of bridges follow the written chain, without caps; N, C: chain ends. Residues, ends and D or L forms follow the SMILES beside them.

Key:
IGFBP-3 [1] = molecular target: T1, IGFBP-3 (Homo sapiens, UniProt P17936); test: BIAcore competition assay, IGFBP-3 binding to immobilized IGF-II; conditions: 20 nM IGFBP-3; approximately 1500 RU immobilized IGF-II; read-out: IC50, inhibition of IGFBP-3 binding to IGF-II (BIAcore)
T1 sequence (P17936 28-291): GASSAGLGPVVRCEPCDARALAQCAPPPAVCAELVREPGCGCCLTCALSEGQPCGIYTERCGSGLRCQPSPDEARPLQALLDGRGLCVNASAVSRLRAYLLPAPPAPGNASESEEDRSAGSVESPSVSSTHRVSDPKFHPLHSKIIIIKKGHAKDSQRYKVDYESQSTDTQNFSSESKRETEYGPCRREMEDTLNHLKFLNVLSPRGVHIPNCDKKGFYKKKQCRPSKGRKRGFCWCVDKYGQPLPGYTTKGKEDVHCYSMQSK
Method: D. BIAcore™ Competition Assay (for IGFBP-3 Binders)
IGF-II was immobilized on a dextran chip for inhibition assays using a BIAcore™ 2000 surface-plasmon-resonance device (BIAcore, Inc., Piscataway, N.J.) to measure free binding protein. IGF-II was biotinylated as described above, and injected over a chip to which streptavidin had been coupled (BIAcore, Inc.) to give approximately 1500 RU of immobilized IGF-II. […] Serial dilutions of peptide were mixed with a constant concentration (20 nM) of IGFBP-3. After incubation for ≧1 hour at room temperature, an aliquot of 20 μl was injected at a flow rate of 20 μl/min over the IGF-II chip. Following the injection, a response reading was taken to measure the relative amount of IGFBP-3 bound to the IGF-II.

IGFBP-1 [2] = molecular target: T2, IGFBP-1 (Homo sapiens, UniProt P08833); test: Biotin-BP plate (ELISA) assay, biotinylated IGFBP-1 binding to IGF-I
T2 construct: biotin (chemical label, EZ-LINK NHS-SS-Biotin)
T2 sequence (P08833 26-259): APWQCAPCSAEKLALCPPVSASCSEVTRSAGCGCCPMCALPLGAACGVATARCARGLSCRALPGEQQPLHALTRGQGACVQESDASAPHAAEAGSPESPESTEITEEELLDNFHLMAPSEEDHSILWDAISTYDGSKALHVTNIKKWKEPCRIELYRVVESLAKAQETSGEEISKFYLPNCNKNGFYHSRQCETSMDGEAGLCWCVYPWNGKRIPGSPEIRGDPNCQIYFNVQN
Method: 1. Biotin-BP Assay (for IGFBP-1 Binders)
(§1) For inhibition of IGFBP-1 binding, IGFBP-1 (as well as IGFBP-3 as a control) were biotinylated as described above. MAXISORP™plates were coated and blocked as described above, using 2 μg/mL IGF-I. In a separate plate, serial dilutions of peptide were premixed with a constant concentration (20 nM) of biotinylated IGFBP-1. After 20 min. at room temperature, the mixture was added to the IGF-I plate. The peptide/IGFBP mix was then removed and the plate was washed ten times with PBS buffer containing 0.05% TWEEN-20™ surfactant. Bound biotin-IGFBP-1 was then detected using streptavidin-conjugated horse radish peroxidase, and a chromogenic substrate.
A second series of peptides made use of non-natural amino acids to probe whether other structural features such as an added methyl group at the alpha carbon, or an isomer (D-alanine) could affect peptide binding to IGFBP-1.
Substitutions at the N-terminus or C-terminus yielded affinity improvements. […] All of these peptides had similar or improved apparent affinity for IGFBP-1 as compared with bp1-01 and bp1-02 and are thus expected to increase the availability of IGF-I in an in vitro cell culture assay.

IGFBP-3 [3] = molecular target: T1, IGFBP-3; test: BIAcore competition assay, IGFBP-3 binding to immobilized IGF-I; conditions: for IGF-I Inhibition IC50 (mut)/IC50 (wt): bp3-01-ox variants by BIAcore, wt = bp3-01-ox
Method: A. BIAcore™ Competition Assay (for IGFBP-3 Binders)
IGF-I was immobilized on a dextran chip for inhibition assays using a BIAcore™ 2000 surface-plasmon-resonance device (BIAcore, Inc., Piscataway, N.J.) to measure free binding protein. […] Serial dilutions of peptide were mixed with a constant concentration (40 nM) of IGFBP-3. After incubation for >1 hour at room temperature, an aliquot of 20 μL was injected at a flow rate of 20 μL/min over the IGF-I chip. Following the injection, a response reading was taken to measure the relative amount of IGFBP-3 bound to the IGF-I.

IGFBP-1 [4] = molecular target: T2, IGFBP-1; test: KIRA assay of IGF-I activity with IGF-I plus IGFBP-1 and peptide; type: cell-based
Method: (§2) C. In Vitro Activation (KIRA)
(§3) The ability of several synthetic peptides to block IGF-I binding to IGFBPs and release functional IGF-I was tested in a KIRA assay of IGF-I activity, as described in Example 1. Cells were treated with IGF-I alone, peptide alone, peptide plus IGF-I, IGF-I plus binding protein (IGFBP-1 or IGFBP-3), or IGF-I plus binding protein (IGFBP-1 or IGFBP-3) and peptide.

IGFBP-3 [5] = molecular target: T1, IGFBP-3; test: KIRA assay of IGF-I activity with IGF-I plus IGFBP-3 and peptide; type: cell-based; conditions: for effect on IGF-I activity in KIRA with IGF-I plus IGFBP-3: FIG. 37D
Method: as §2, §3
It is believed that this would drop to 30 uM with a 1:1 ratio.

IGFBP-3 [6] = molecular target: T1, IGFBP-3; test: ^125I-IGF-I competitive binding plate assay, IGFBP-3; conditions: FIG. 35
Method: (§4) The mutant (Leu^24,Ala^31)hIGF-I was also tested for its ability to displace radio-labeled rhIGF-I off the IGFBPs in a competitive binding assay. This assay involves coating recombinant human (rh) IGFBP-1 or rhIGFBP-3 (160 ng/ml) onto 96-well plates overnight, blocking the plates for one hour with 0.5% BSA, adding rhIGF-I (250-0.08 ng/ml) or (Leu^24,Ala^31)hIGF-I for 1 hour, then adding 20,000 cpm of ^125I-IGF-I and incubating for 2 hours before washing and counting.
(§5) As an additional assay of peptide activity, several peptides were tested in an assay using ^125I-labeled IGF-I to measure inhibition of IGFBP binding, as described in Example 1 (Assay 3). Serial dilutions of peptide were added to an IGFBP-1 or an IGFBP-3 plate. Thereafter, ^125I-labeled IGF-I was added and the plates were incubated for 2 hours. The plates were then washed and counted to determine the amount of bound IGF-I.

[7] = molecular target: T3, recombinant human (rh) IGFBP-1 (Homo sapiens, UniProt P08833); test: ^125I-IGF-I competitive binding plate assay, IGFBP-1; conditions: FIG. 36
T3 sequence (P08833 26-259): T2 sequence (P08833 26-259)
Method: as §4, §5

[8] = system: endogenous IGFBPs present in human serum; test: Displacement of ^125I-IGF-I from IGFBPs in human serum (FPLC-SEC); type: binding; conditions: human serum; peptide at 0.2 mM
Method: To determine if the IGF mutant could displace IGF-I from endogenous IGFBPs present in human serum, the following experiment was performed. Radiolabeled rhIGF-I (^125-IGF-I) was incubated with normal human serum samples at a concentration of 33 ng/ml for 16 hr at 4° C. to allow for the formation of […] complexes. […] The samples (n=3) were then analyzed by FPLC size-exclusion chromatography (FPLC-SEC) to determine the relative size and amounts of the ^125I-IGF-I:IGFBP complexes.
Data are expressed as cpm per fraction (n=1).
This Example tests an IGFBP-3-specific peptide, BP15, for its ability to block the binding of ^125I-IGF-I in human serum. Human serum was incubated with ^125I-IGF-I±the peptide and the amount of tracer bound to IGFBPs via size-exclusion chromatography was measured.

IGFBP-3 [9] = molecular target: T1, IGFBP-3; test: Biotin-BP plate assay, biotinylated IGFBP-3 binding to IGF-I (control); conditions: FIG. 34
Method: as §1

IGFBP-1 [10] = molecular target: T2, IGFBP-1; test: BIAcore kinetics on immobilized IGFBP-1; type: binding; conditions: IGFBP-1 coupled to dextran chip
Text: The kinetics of bp1-01 peptide variants were examined in a BIAcore™ (BIAcore, Inc., Piscataway, N.J.) assay using IGFBP-1 covalently coupled via EDC/NHS (as described by the manufacturer) to a dextran chip. […] The latter implies a half-life for peptide dissociation from IGFBP-1 of approximately 28 sec. The association rate constant is moderately fast, consistent with the notion that the peptide may not undergo significant conformation change upon binding to IGFBP-1.

[11] = 40 nM IGFBP-3, 400 to 800 RU immobilized IGF-I, read-out: BIAcore Assay IC50, inhibition of IGF-I binding to IGFBP-3

Structure (SMILES)	IC50 (IGFBP-3 [1])	IGF-I Inhibition IC50 (mut)/IC50 (wt) (IGFBP-3 [3])	effect on IGF-I activity in KIRA with IGF-I plus IGFBP-3 (IGFBP-3 [5])	inhibition of ^125I-IGF-I binding to an IGFBP-3 plate (IGFBP-3 [6])	inhibition of ^125I-IGF-I binding to an IGFBP-1 coated plate [7]	IC50 (IGFBP-3 [3]; [11])	further results
CSCC[C@H](NC(=O)[C@H](CC(N)=O)NC(=O)[C@@H]1CSSC[C@H](NC(=O)[C@@H](NC(=O)[C@H](CCC(=O)O)NC(=O)[C@H](CCC(=O)O)NC(=O)[C@@H](N)CO)C(C)C)C(=O)N[C@@H](Cc2c[nH]c3ccccc23)C(=O)N2CCC[C@H]2C(=O)N[C@@H](C(C)C)C(=O)N[C@@H](C)C(=O)N[C@@H](CCC(=O)O)C(=O)N[C@@H](Cc2c[nH]c3ccccc23)C(=O)N[C@@H](Cc2ccc(O)cc2)C(=O)N[C@@H](CC(C)C)C(=O)N1)C(=O)N[C@@H](Cc1c[nH]c2ccccc12)C(=O)NCC(=O)O [BP3-01-ox] (H-SEEVCWPVAEWYLCNMWG-OH; disulfide 5-14; N-terminus and C-terminus assumed)	0.92 µM	1	no significant effect	inhibition	did not inhibit	–	inhibition of biotinylated IGFBP-1 binding to IGF-I plate (IGFBP-1 [2]; FIG. 33): little or no inhibition; effect on IGF-I activity in KIRA with IGF-I plus IGFBP-1 (IGFBP-1 [4]; FIG. 37B): no significant effect
CSCC[C@@H]1NC(=O)[C@H](Cc2c[nH]c3ccccc23)NC(=O)[C@@H]2CCCN2C(=O)CNC(=O)[C@H](CC(=O)O)NC(=O)[C@H](C)NC(=O)[C@@H](NC(=O)[C@@H](NC(=O)CNC(=O)[C@H](CCSC)NC(=O)[C@@H](N)CC(=O)O)C(C)C)CSSC[C@@H](C(=O)N[C@@H](CCC(=O)O)C(=O)N[C@@H](Cc2c[nH]c3ccccc23)C(=O)N[C@H](C(=O)N[C@@H](CCC(=O)O)C(=O)O)[C@@H](C)O)NC(=O)[C@H](C(C)C)NC(=O)[C@H](Cc2ccc(O)cc2)NC1=O [BP3-02-ox] (H-DMGVCADGPWMYVCEWTE-OH; disulfide 5-14; N-terminus and C-terminus assumed)	–	–	–	inhibition	did not inhibit	12 µM	–
CC(C)C[C@@H]1NC(=O)[C@H](Cc2ccc(O)cc2)NC(=O)[C@H](Cc2c[nH]c3ccccc23)NC(=O)[C@H](CCC(=O)O)NC(=O)[C@H](C)NC(=O)[C@H](C(C)C)NC(=O)[C@@H]2CCCN2C(=O)[C@H](Cc2c[nH]c3ccccc23)NC(=O)[C@@H](NC(=O)[C@@H](NC(=O)[C@H](CCC(=O)O)NC(=O)[C@H](CCC(=O)O)NC(=O)[C@@H](N)CO)C(C)C)CSSC[C@@H](C(=O)N[C@@H](CC(N)=O)C(=O)O)NC1=O [BP15] (H-SEEVCWPVAEWYLCN-OH; disulfide 5-14; N-terminus and C-terminus assumed)	0.78 µM	0.36	–	–	–	0.75 µM	IC50 (IGFBP-3 [3]; bp3-01-ox variants by BIAcore competition assay, read-out: IGF-I Inhibition IC50): 0.72 µM; IC50 believed to result with a 1:1 ratio (KIRA) (IGFBP-3 [5]; IGFBP-3:IGF-1 1:1 ratio, not tested): 30 µM; IC50 (IGFBP-3 [5]; IGFBP-3:IGF-1 at a 3:1 ratio, read-out: IC50 for blocking of IGFBP-3 (activation of the KIRA assay)): 95 µM; decrease in ^125I-IGF-I associated with the 150-KD IGF/IGFBP-3/ALS complex [8]: ~42%; increase in the amount of free ^125I-IGF-I [8]: 59%
CC(C)C[C@@H]1NC(=O)[C@H](Cc2ccc(O)cc2)NC(=O)[C@H](Cc2c[nH]c3ccccc23)NC(=O)[C@H](CCC(=O)O)NC(=O)[C@H](C)NC(=O)[C@H](C(C)C)NC(=O)[C@@H]2CCCN2C(=O)[C@H](Cc2c[nH]c3ccccc23)NC(=O)[C@@H](NC(=O)[C@@H](N)C(C)C)CSSC[C@@H](C(=O)N[C@@H](CC(N)=O)C(=O)O)NC1=O [BP17] (H-VCWPVAEWYLCN-OH; disulfide 2-11; N-terminus and C-terminus assumed)	5.1 µM	–	–	–	–	9 µM	–
CC(C)C[C@@H]1NC(=O)[C@H](Cc2c[nH]c3ccccc23)NC(=O)[C@H](CCC(N)=O)NC(=O)[C@H](CC(C)C)NC(=O)[C@@H]2CCCN2C(=O)CNC(=O)[C@H](C)NC(=O)[C@H](CCCNC(=N)N)NC(=O)[C@@H](NC(=O)CNC(=O)[C@@H](NC(=O)[C@H](CCC(=O)O)NC(=O)[C@@H](N)CO)C(C)C)CSSC[C@@H](C(=O)N[C@@H](CCC(=O)O)C(=O)N[C@@H](CCCCN)C(=O)N[C@@H](Cc2ccc(O)cc2)C(=O)N[C@@H](Cc2ccccc2)C(=O)NCC(N)=O)NC1=O [bp1-02] (H-SEVGCRAGPLQWLCEKYFG-NH2; disulfide 5-14; N-terminus assumed)	–	–	Neither of these peptides showed activity	–	–	–	IC50 (IGFBP-1 [2]; 20 nM biotinylated IGFBP-1, IGF-I coated plate, read-out: ELISA IC50, inhibition of IGF-I binding to IGFBP-1): ~0.05 µM and 0.05 µM; IGF-I Inhibition IC50 (mut)/IC50 (wt) (IGFBP-1 [2]; g8 bp1-01 selectants by ELISA plate assay, wt = bp1-01): 0.37; inhibition of biotinylated IGFBP-3 binding to IGF-I plate (IGFBP-3 [9]): no inhibition; kon (IGFBP-1 [10]; read-out: association rate constant): 230000 M⁻¹ s⁻¹; koff (IGFBP-1 [10]; read-out: dissociation rate constant / dissociation kinetics): 0.0503 s⁻¹; IC50 (IGFBP-1 [4]; peptide plus IGF-I plus IGFBP-1, read-out: IC50 for blocking the inhibition of IGF-I activity by IGFBP-1 (KIRA)): 0.187 µM
